Measured values reported in the supplement of paper PMC11061612.

Assays:
Assay in all cases: combination Emax (second highest fraction inhibited in the dose matrix, 72 h); higher = more inhibition; extreme values may be limits of the assay
[1] = system: FLO-1 (Esophageal Adenocarcinoma)
How it was run: (§1)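 Cell lines grown in DMEM/F12 or RPMI with 10% FBS were plated in 1536-well plates and held 24 hours at 37°C, 5% CO2 before 72 hours of exposure to two-drug dose matrices, with DMSO typically at 0.2%. CellTiter-Glo 2.0 luminescence gave viability, which was converted to inhibition. Vehicle wells were set to 0 and blank wells to 1. Combination Emax is the second-highest inhibition in the matrix, and Bliss excess is the observed combination effect minus the expected EA + EB − EA·EB, where EA and EB are the single-agent effects.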

[2] = system: ES-2 (Ovarian Carcinoma)
How it was run: as §1

[3] = system: RL95-2 (Endometrial Carcinoma)
How it was run: as §1

[4] = system: OCI-AML5 (Acute Myeloid Leukemia)
How it was run: as §1

[5] = system: KYM-1 (Rhabdomyosarcoma)
How it was run: as §1

[6] = system: SK-MM-2 (Plasma Cell Myeloma)
How it was run: as §1

[7] = system: HuO-3N1 (Osteosarcoma)
How it was run: as §1

[8] = system: SNU-175 (Colorectal Carcinoma)
How it was run: as §1

[9] = system: NCI-H810 (Non-Small Cell Lung Carcinoma)
How it was run: as §1

[10] = system: OVTOKO (Ovarian Carcinoma)
How it was run: as §1

[11] = system: NKM-1 (Acute Myeloid Leukemia)
How it was run: as §1

[12] = system: JHH-1 (Hepatocellular Carcinoma)
How it was run: as §1

[13] = system: LAMA-84 (Chronic Myelogenous Leukemia)
How it was run: as §1

[14] = system: SW684 (Other Solid Carcinomas)
How it was run: as §1

[15] = system: NCI-H1623 (Lung Adenocarcinoma)
How it was run: as §1

[16] = system: PANC-02-03 (Pancreatic Carcinoma)
How it was run: as §1

[17] = system: RPMI-8866 (Chronic Myelogenous Leukemia)
How it was run: as §1

[18] = system: HTC-C3 (Thyroid Gland Carcinoma)
How it was run: as §1

[19] = system: NCI-H196 (Small Cell Lung Carcinoma)
How it was run: as §1

[20] = system: PC-14 (Lung Adenocarcinoma)
How it was run: as §1

Row | Structure (SMILES) | combination Emax [1] | combination Emax [2] | combination Emax [3] | combination Emax [4] | combination Emax [5] | combination Emax [6] | combination Emax [7] | combination Emax [8] | combination Emax [9] | combination Emax [10] | combination Emax [11] | combination Emax [12] | combination Emax [13] | combination Emax [14] | combination Emax [15] | combination Emax [16] | combination Emax [17] | combination Emax [18] | combination Emax [19] | combination Emax [20]
1 | COc1cccc(OCCCN)c1-c1cc(Nc2cnc(C#N)cn2)n[nH]1 [Prexasertib] + O=C(c1cc(Cc2n[nH]c(=O)c3ccccc23)ccc1F)N1CCN(C(=O)C2CC2)CC1 [Olaparib] (first compound max 1 µM, 7x7, partner max 10 µM) | 0.677 | 0.788 | 0.882 | 0.991 | 0.855 | 0.656 | 0.524 | 0.527 | 0.896 | 0.52 | 0.902 | 0.582 | 0.973 | 0.43 | 0.813 | 0.502 | 1 | 0.751 | 0.556 | 0.848
2 | CN(CCO)CC[C@H](CSc1ccccc1)Nc1ccc(S(=O)(=O)NC(=O)c2ccc(N3CCC([C@@H](O)c4ccccc4-c4ccc(Cl)cc4)CC3)cc2)cc1S(=O)(=O)C(F)(F)F [AZD4320] + CCN(CCO)CCCOc1ccc2c(Nc3cc(CC(=O)Nc4cccc(F)c4)[nH]n3)ncnc2c1 [AZD2811] (first compound max 1 µM, 7x7, partner max 1 µM) | 0.699 | 0.168 | 0.92 | 1 | 0.125 | 1 | 0.152 | 0.996 | 0.894 | 0.166 | 1 | 0.82 | 0.906 | 0.158 | 0.197 | 0.179 | 0.952 | 0.347 | 0.055 | 0.395
3 | NC1(C(=O)N[C@@H](CCO)c2ccc(Cl)cc2)CCN(c2ncnc3[nH]ccc23)CC1 [Capivasertib] + C[C@@H]1COCCN1C2=NC(=NC(=C2)C3(CC3)[S@](=N)(=O)C)C4=C5C=CNC5=NC=C4 [AZD6738] (first compound max 10 µM, 7x7, partner max 10 µM) | 0.652 | 0.86 | 0.886 | 0.917 | 0.969 | 0.302 | 0.592 | 0.709 | 0.648 | 0.628 | 0.933 | 0.409 | 0.941 | 0.587 | 0.82 | 0.474 | 0.911 | 0.823 | 0.408 | 0.854
4 | CC1(C)CCC(CN2CCN(c3ccc(C(=O)NS(=O)(=O)c4ccc(NCC5CCOCC5)c([N+](=O)[O-])c4)c(Oc4cnc5[nH]ccc5c4)c3)CC2)=C(c2ccc(Cl)cc2)C1 [Venetoclax] + CN(C)CCCOc1ccc(-c2ccc3ncc4c(c3c2)n(C2CCOCC2)c(=O)n4C)cn1 [AZD0156] (first compound max 1 µM, 7x7, partner max 1 µM) | 0.339 | 0.22 | 0.135 | 0.901 | 0.158 | 1 | 0.262 | 0.128 | 0.121 | 0.385 | 0.959 | 0.214 | 0.339 | 0.284 | 0.262 | 0.194 | 0.0785 | 0.205 | 0.113 | 0.259
5 | CC1(C)CCC(CN2CCN(c3ccc(C(=O)NS(=O)(=O)c4ccc(NCC5CCOCC5)c([N+](=O)[O-])c4)c(Oc4cnc5[nH]ccc5c4)c3)CC2)=C(c2ccc(Cl)cc2)C1 [Venetoclax] + Cn1cnc2c(F)c(Nc3ccc(Br)cc3Cl)c(C(=O)NOCCO)cc21 [Selumetinib] (first compound max 1 µM, 7x7, partner max 3 µM) | 0.319 | 0.366 | 0.332 | 1 | 0.124 | 1 | 0.146 | 0.313 | 0.0631 | 0.163 | 0.975 | 0.272 | 0.707 | 0.191 | 0.256 | 0.367 | 0.293 | 0.508 | 0.077 | 0.22
6 | CN(C)CCCOc1ccc(-c2ccc3ncc4c(c3c2)n(C2CCOCC2)c(=O)n4C)cn1 [AZD0156] + C[C@@H]1COCCN1C2=NC(=NC(=C2)C3(CC3)[S@](=N)(=O)C)C4=C5C=CNC5=NC=C4 [AZD6738] (first compound max 1 µM, 7x7, partner max 10 µM) | 0.691 | 0.808 | 0.551 | 0.917 | 0.786 | 0.625 | 0.299 | 0.49 | 0.762 | 0.471 | 0.814 | 0.596 | 0.97 | 0.301 | 0.675 | 0.579 | 0.967 | 0.823 | 0.292 | 0.828
7 | CN(CCO)CC[C@H](CSc1ccccc1)Nc1ccc(S(=O)(=O)NC(=O)c2ccc(N3CCC([C@@H](O)c4ccccc4-c4ccc(Cl)cc4)CC3)cc2)cc1S(=O)(=O)C(F)(F)F [AZD4320] + C[C@@H](Nc1cc(F)cc(F)c1)c1cc(C(=O)N(C)C)cc2c(=O)cc(N3CCOCC3)oc12 [AZD8186] (first compound max 1 µM, 7x7, partner max 3 µM) | 0.486 | 0.334 | 0.253 | 1 | 0.197 | 1 | 0.441 | 0.908 | 0.592 |  | 1 | 0.747 | 0.728 | 0.702 | 0.865 | 0.278 | 0.864 | 0.407 | 0.517 | 0.297
8 | Cc1c2c(nn1C)CSCc1cc(n(C)n1)CSc1cc(c3ccccc3c1)OCCCc1c(C(=O)O)n(C)c3c-2c(Cl)ccc13 [AZD5991] + Cn1cnc2c(F)c(Nc3ccc(Br)cc3Cl)c(C(=O)NOCCO)cc21 [Selumetinib] (first compound max 1 µM, 7x7, partner max 3 µM) | 0.386 | 0.56 | 1 | 1 | 0.259 | 0.356 | 0.832 | 0.714 | 0.322 |  | 0.989 | 0.663 | 0.912 | 0.319 | 0.898 | 0.524 | 0.502 | 0.598 | 0.132 | 0.343
9 | CCc1c2c(nc3ccc(O)cc13)-c1cc3c(c(=O)n1C2)COC(=O)[C@]3(O)CC [SN-38] + O=C(c1cc(Cc2n[nH]c(=O)c3ccccc23)ccc1F)N1CCN(C(=O)C2CC2)CC1 [Olaparib] (first compound max 0.3 µM, 7x7, partner max 10 µM) | 0.479 |  |  |  | 0.875 | 0.89 | 0.688 | 0.471 | 0.557 |  | 0.987 | 0.539 | 0.948 | 0.556 |  | 0.728 | 0.994 | 0.686 |  | 0.696
10 | COc1nnc2ccc(N3CCC(c4ccc(OCCN5CCN(C)C(=O)[C@H]5C)cc4)CC3)nn12 [AZD5153] + CN(CC[C@H](CSC1=CC=CC=C1)NC2=C(C=C(C=C2)S(=O)(=O)NC(=O)C3=CC=C(C=C3)N4CCC(CC4)[C@H](C5=CC=CC=C5C6=CC=C(C=C6)Cl)O)S(=O)(=O)C(F)(F)F)CCO [AZD4320] (first compound max 1 µM, 7x7, partner max 1 µM) |  | 0.745 | 0.452 | 1 |  |  | 0.466 | 0.759 |  | 0.495 |  | 0.777 |  |  | 0.46 |  | 0.87 | 0.968 | 0.276 | 0.421
11 | CC(=O)c1c(C)c2cnc(Nc3ccc(N4CCNCC4)cn3)nc2n(C2CCCC2)c1=O [Palbociclib] + CN(CC[C@H](CSC1=CC=CC=C1)NC2=C(C=C(C=C2)S(=O)(=O)NC(=O)C3=CC=C(C=C3)N4CCC(CC4)[C@H](C5=CC=CC=C5C6=CC=C(C=C6)Cl)O)S(=O)(=O)C(F)(F)F)CCO [AZD4320] (first compound max 10 µM, 7x7, partner max 1 µM) |  | 0.621 | 0.358 | 1 |  |  | 0.494 | 0.877 |  | 0.53 |  | 0.519 |  |  | 0.387 |  | 0.927 | 0.515 | 0.276 | 0.311
12 | C[C@@H](c1ccc2nccn2c1)n1nnc2ncc(-c3cnn(C)c3)nc21 [Savolitinib] + CN(CC[C@H](CSC1=CC=CC=C1)NC2=C(C=C(C=C2)S(=O)(=O)NC(=O)C3=CC=C(C=C3)N4CCC(CC4)[C@H](C5=CC=CC=C5C6=CC=C(C=C6)Cl)O)S(=O)(=O)C(F)(F)F)CCO [AZD4320] (first compound max 1 µM, 7x7, partner max 1 µM) |  | 0.236 | 0.167 | 1 |  |  | 0.201 | 0.349 |  | 0.274 |  | 0.356 |  |  | 0.255 |  | 0.366 | 0.282 | 0.2 | 0.173
